Data reported in ChEMBL document CHEMBL3351737, “Design, synthesis and exploring the quantitative structure-activity relationship of some antioxidant flavonoid analogues” (Bioorg Med Chem Lett, 2014).

Assay: Antioxidant activity assessed as DPPH radical scavenging activity incubated at room temperature for 20 mins by UV-visible spectrophotometry

Row | SMILES | IC50 (DPPH radical (cell-free)) | IC50
1 | O=C(O)/C=C/c1ccc(O)cc1 [COUMARIC ACID] | 18.4 mM | 
2 | O=C(/C=C/c1ccc(Cl)cc1)c1ccccc1O | 6.1 mM | 
3 | CC(C)(C)c1ccc(-c2cc(=O)c3ccc(O)cc3o2)cc1 | 44.3 mM | 
4 | O=C(/C=C/C=C/c1ccccc1)c1ccccc1 | 113 mM | 
5 | COc1ccc(O)c(C(C)(C)C)c1.COc1ccc(O)cc1C(C)(C)C [BUTYLATED HYDROXYANISOLE] | 0.019 mM | 
6 | O=C(/C=C\C=C/c1ccc2c(c1)OCO2)N1CCCCC1 | 90.7 mM | 
7 | Cc1c(C)c2c(c(C)c1O)CCC(C)(C(=O)O)O2 (stereo unspecified) [TROLOX] | 0.012 mM | 
8 | O=C(O)c1ccccc1O [SALICYLIC ACID] |  | 278 mM
9 | CC(C)c1ccc(-c2cc(=O)c3c(O)cc(O)cc3o2)cc1 | 29.6 mM | 
10 | O=C(/C=C/c1ccco1)c1ccccc1O | 4.27 mM | 
11 | O=C1O[C@H]([C@@H](O)CO)C(O)=C1O [ASCORBIC ACID] | 0.033 mM | 
12 | COc1c(C(=O)/C=C(\O)c2ccccc2)ccc2occc12 [PONGAMOL] | 11.6 mM | 
13 | CC(C)(C)Oc1ccc(-c2oc3cc(O)cc(O)c3c(=O)c2O)cc1 | 0.452 mM | 
14 | CC(=O)c1ccccc1O | 155 mM | 
15 | CC(C)(C)c1ccc(/C=C/C(=O)c2ccccc2O)cc1 | 17.1 mM | 
16 | COc1ccc(/C=C/C(=O)c2ccccc2O)cc1 | 190 mM | 
17 | COc1c(-c2ccccc2)oc2c(ccc3occc32)c1=O [KARANJIN] | 4.23 mM | 
18 | O=Cc1ccco1 [FURFURAL] | 215 mM | 
19 | O=C(O)/C=C/c1ccccc1 [CINNAMIC ACID] | 1730 mM | 
20 | O=C(O)c1cc(O)c(O)c(O)c1 [GALLIC ACID] | 0.011 mM | 
21 | O=C/C=C/c1ccccc1 [CINNAMALDEHYDE] | 372 mM | 
22 | Cc1ccc(/C=C/C(=O)c2ccccc2O)cc1 | 7.72 mM | 
23 | O=C1C[C@@H](c2ccccc2)Oc2cc(O)cc(O)c21 [PINOCEMBRIN] | 59.3 mM | 
24 | O=Cc1ccccc1O [SALICYLADEHYDE] | 96.6 mM | 
25 | CC(C)(C)c1ccc(-c2oc3cc(O)cc(O)c3c(=O)c2O)cc1 | 0.709 mM | 

Continued, in another order:

Row | IC50 (DPPH radical (cell-free)) | SMILES | IC50
26 | 0.114 mM | COc1ccc(-c2oc3ccccc3c(=O)c2O)cc1 | 
27 | 0.387 mM | O=c1c(O)c(-c2ccccc2)oc2ccccc12 [FLAVONOL] | 
28 | 682 mM | COc1ccc(-c2cc(=O)c3ccccc3o2)cc1 [4'-METHOXYFLAVONE] | 
29 | 0.663 mM | O=c1c(O)c(-c2ccc(Cl)cc2)oc2ccccc12 | 
30 | 0.725 mM | O=c1cc(-c2ccc(Cl)cc2)oc2ccccc12 | 
31 | 0.094 mM | O=c1c(O)c(-c2ccc3c(c2)OCO3)oc2ccccc12 | 
32 | 0.034 mM | O=c1c(O)c(-c2ccco2)oc2ccccc12 | 
33 | 6.34 mM | Cc1ccc(-c2cc(=O)c3ccccc3o2)cc1 | 
34 | 0.612 mM | CN(C)c1ccc(-c2oc3cc(O)cc(O)c3c(=O)c2O)cc1 | 
35 | 7.13 mM | O=C(/C=C/C=C/c1ccccc1)c1ccccc1O | 
36 | 11 mM | CC(C)c1ccc(-c2oc3ccccc3c(=O)c2O)cc1 | 
37 | 0.022 mM | CN(C)c1ccc(-c2oc3ccccc3c(=O)c2O)cc1 | 
38 | 0.039 mM | O=c1c(O)c(/C=C/c2ccccc2)oc2ccccc12 | 
39 | 78 mM | O=C(/C=C/c1ccccc1)c1ccccc1O [2'-HYDROXYCHALCONE] | 
40 | 0.191 mM | O=c1c(O)c(-c2ccccc2)oc2cc(O)cc(O)c12 [GALANGIN] | 
41 | 27.8 mM | O=c1c(O)c(-c2ccc(Cl)cc2)oc2cc(O)cc(O)c12 | 
